# Laboratory results as given in patent publication US20210254056A1, “IDENTIFICATION AND TARGETED MODULATION OF GENE SIGNALING NETWORKS” (CAMP4 THERAPEUTICS CORPORATION, priority 2017, published 2021).
# Where two headings read alike, the source gives them in different places.
# System: hepatocytes
# Assay: RNA-seq of hepatocytes treated with Phase III failure compounds
# Details: for significant modulation of expression of disease genes: q≤0.05, genes in the value or listed in the block
# Procedure: RNA-seq was performed to determine the effects of the compounds on hepatocytes.
# Significance was determined by the criteria of FPKM≥0.5, a log 2(fold-change)≥1, and a […].
smiles,measurement,setting,value
Cn1cnc2c(F)c(Nc3ccc(Br)cc3Cl)c(C(=O)NOCCO)cc21 [Selumetinib],"RNA-seq results, CYP2B6 expression",,0.38
same,"RNA-seq results, CYP2C19 expression",,0.76
same,"RNA-seq results, CYP2D6 expression",,0.03
same,"RNA-seq results, CYP3A4 expression",,0.08
same,"RNA-seq results, CYP7B1 expression",,−0.15
same,"RNA-seq results, CYP39A1 expression",,−0.27
same,RNA-seq results: CYP2B6 expression,,−0.08
same,RNA-seq results: CYP2C19 expression,,0.1
same,RNA-seq results: CYP2D6 expression,,0.16
same,RNA-seq results: CYP3A4 expression,,0.11
same,RNA-seq results: CYP7B1 expression,,−0.3
same,RNA-seq results: CYP39A1 expression,,0.08
same,RNA-seq results: A1BG expression,"gene A1BG, hepatocytes",0.00
same,RNA-seq results: AGTR1 expression,"gene AGTR1, hepatocytes",−0.55
same,RNA-seq results: AGXT expression,"gene AGXT, hepatocytes",0.22
same,RNA-seq results: AHI1 expression,"gene AHI1, hepatocytes",0.01
same,RNA-seq results: AMPD3 expression,"gene AMPD3, hepatocytes",0.22
same,RNA-seq results: AMT expression,"gene AMT, hepatocytes",0.29
same,RNA-seq results: ANGPTL3 expression,"gene ANGPTL3, hepatocytes",−0.67
same,RNA-seq results: ANKS4B expression,"gene ANKS4B, hepatocytes",−0.06
same,RNA-seq results: ANKS6 expression,"gene ANKS6, hepatocytes",−0.02
same,RNA-seq results: ANPEP expression,"gene ANPEP, hepatocytes",0.04
same,RNA-seq results: AOC2 expression,"gene AOC2, hepatocytes",0.28
same,RNA-seq results: APOA2 expression,"gene APOA2, hepatocytes",−0.45
same,RNA-seq results: APOA5 expression,"gene APOA5, hepatocytes",0.13
same,RNA-seq results: APOB expression,"gene APOB, hepatocytes",−0.10
same,RNA-seq results: COG5 expression,"gene COG5, hepatocytes",−0.14
same,RNA-seq results: COG6 expression,"gene COG6, hepatocytes",0.1
same,RNA-seq results: COL1A1 expression,"gene COL1A1, hepatocytes",0.41
same,RNA-seq results: COX6A1 expression,"gene COX6A1, hepatocytes",0.02
same,RNA-seq results: CP expression,"gene CP, hepatocytes",0.26
same,RNA-seq results: CPS1 expression,"gene CPS1, hepatocytes",0.52
same,RNA-seq results: CPT1A expression,"gene CPT1A, hepatocytes",0.19
same,RNA-seq results: CPT2 expression,"gene CPT2, hepatocytes",−0.2
same,RNA-seq results: CROT expression,"gene CROT, hepatocytes",−0.4
same,RNA-seq results: CSPP1 expression,"gene CSPP1, hepatocytes",−0.14
same,RNA-seq results: CTC1 expression,"gene CTC1, hepatocytes",0.03
same,RNA-seq results: CTDSP2 expression,"gene CTDSP2, hepatocytes",−0.14
same,RNA-seq results: CTH expression,"gene CTH, hepatocytes",0.67
same,RNA-seq results: CTNS expression,"gene CTNS, hepatocytes",0.69
same,RNA-seq results: CTSF expression,"gene CTSF, hepatocytes",0.19
same,RNA-seq results: CTSK expression,"gene CTSK, hepatocytes",0.08
same,RNA-seq results: CYB5A expression,"gene CYB5A, hepatocytes",−0.09
same,RNA-seq results: CYB5R3 expression,"gene CYB5R3, hepatocytes",0.1
same,RNA-seq results: CYP27A1 expression,"gene CYP27A1, hepatocytes",0.14
same,RNA-seq results: DAO expression,"gene DAO, hepatocytes",−0.11
same,RNA-seq results: DBT expression,"gene DBT, hepatocytes",−0.16
same,RNA-seq results: DCDC2 expression,"gene DCDC2, hepatocytes",−1.04
same,RNA-seq results: DCXR expression,"gene DCXR, hepatocytes",0.01
same,RNA-seq results: FABP1 expression,"gene FABP1, hepatocytes",0.06
same,RNA-seq results: FADD expression,"gene FADD, hepatocytes",−0.08
same,RNA-seq results: FAM111A expression,"gene FAM111A, hepatocytes",0.12
same,RNA-seq results: FAM111B expression,"gene FAM111B, hepatocytes",−1.27
same,RNA-seq results: FAN1 expression,"gene FAN1, hepatocytes",−0.37
same,RNA-seq results: FARS2 expression,"gene FARS2, hepatocytes",−0.21
same,RNA-seq results: FASLG expression,"gene FASLG, hepatocytes",−0.55
same,RNA-seq results: FGA expression,"gene FGA, hepatocytes",0.07
same,RNA-seq results: FGD1 expression,"gene FGD1, hepatocytes",−0.4
same,RNA-seq results: FGFR2 expression,"gene FGFR2, hepatocytes",−0.97
same,RNA-seq results: FIG4 expression,"gene FIG4, hepatocytes",0.29
same,RNA-seq results: FIS1 expression,"gene FIS1, hepatocytes",−0.06
same,RNA-seq results: FTCD expression,"gene FTCD, hepatocytes",0.18
same,RNA-seq results: FTH1 expression,"gene FTH1, hepatocytes",0.45
same,RNA-seq results: FUCA1 expression,"gene FUCA1, hepatocytes",0.02
same,RNA-seq results: FXN expression,"gene FXN, hepatocytes",−0.33
same,RNA-seq results: G6PC3 expression,"gene G6PC3, hepatocytes",−0.17
same,RNA-seq results: G6PC expression,"gene G6PC, hepatocytes",1.05
same,RNA-seq results: G6PD expression,"gene G6PD, hepatocytes",0.7
same,RNA-seq results: GALK1 expression,"gene GALK1, hepatocytes",0.05
same,RNA-seq results: GALK2 expression,"gene GALK2, hepatocytes",0.08
same,RNA-seq results: GALT expression,"gene GALT, hepatocytes",0.37
same,RNA-seq results: GATA6 expression,"gene GATA6, hepatocytes",−0.01
same,RNA-seq results: GATM expression,"gene GATM, hepatocytes",−0.21
same,RNA-seq results: GBA expression,"gene GBA, hepatocytes",0.33
same,RNA-seq results: GBE1 expression,"gene GBE1, hepatocytes",0.06
same,RNA-seq results: GCH1 expression,"gene GCH1, hepatocytes",0.02
same,RNA-seq results: GCKR expression,"gene GCKR, hepatocytes",0.43
same,RNA-seq results: GCLC expression,"gene GCLC, hepatocytes",0.07
same,RNA-seq results: GOSH expression,"gene GOSH, hepatocytes",−0.26
same,RNA-seq results: RRM2B,"gene RRM2B, hepatocytes",−0.30
same,RNA-seq results: RSAD1,"gene RSAD1, hepatocytes",−0.06
same,RNA-seq results: SAMHD1,"gene SAMHD1, hepatocytes",−0.29
same,RNA-seq results: SC5D,"gene SC5D, hepatocytes",−0.23
same,RNA-seq results: SCARB1,"gene SCARB1, hepatocytes",0.08
same,RNA-seq results: SCN9A,"gene SCN9A, hepatocytes",0.14
same,RNA-seq results: SDCCAG8,"gene SDCCAG8, hepatocytes",−0.25
same,RNA-seq results: SEPN1,"gene SEPN1, hepatocytes",−0.10
same,RNA-seq results: SERAC1,"gene SERAC1, hepatocytes",−0.29
same,RNA-seq results: SERPINA1,"gene SERPINA1, hepatocytes",0.01
same,RNA-seq results: SERPING1,"gene SERPING1, hepatocytes",−0.11
same,RNA-seq results: SERPINI1,"gene SERPINI1, hepatocytes",−0.36
same,RNA-seq results: SETBP1,"gene SETBP1, hepatocytes",0.22
same,RNA-seq results: SFXN4,"gene SFXN4, hepatocytes",−0.33
same,RNA-seq results: SLC10A1,"gene SLC10A1, hepatocytes",0.00
same,RNA-seq results: SLC10A3,"gene SLC10A3, hepatocytes",0.23
same,RNA-seq results: SLC10A5,"gene SLC10A5, hepatocytes",0.63
same,RNA-seq results: SLC10A7,"gene SLC10A7, hepatocytes",−0.35
same,RNA-seq results: SLC11A2,"gene SLC11A2, hepatocytes",−0.26
same,RNA-seq results: SLC19A1,"gene SLC19A1, hepatocytes",−0.42
same,RNA-seq results: SLC19A2,"gene SLC19A2, hepatocytes",0.22
same,RNA-seq results: SLC19A3,"gene SLC19A3, hepatocytes",0.00
same,RNA-seq results: SLC22A1,"gene SLC22A1, hepatocytes",−0.07
same,RNA-seq results: SLC22A5,"gene SLC22A5, hepatocytes",0.32
same,RNA-seq results: SLC25A1,"gene SLC25A1, hepatocytes",0.11
same,RNA-seq results: SLC25A10,"gene SLC25A10, hepatocytes",−0.12
same,RNA-seq results: SLC25A12,"gene SLC25A12, hepatocytes",−0.11
same,RNA-seq results: SLC25A13,"gene SLC25A13, hepatocytes",−0.15
same,RNA-seq results: SLC25A15,"gene SLC25A15, hepatocytes",−0.21
same,RNA-seq results: SLC25A19,"gene SLC25A19, hepatocytes",−0.35
same,RNA-seq results: SLC25A20,"gene SLC25A20, hepatocytes",−0.28
same,RNA-seq results: SLC25A29,"gene SLC25A29, hepatocytes",0.25
same,RNA-seq results: SLC25A32,"gene SLC25A32, hepatocytes",−0.44
CC(C)[C@H](O)C(=O)N[C@@H](C)C(=O)N[C@@H]1C(=O)N(C)CCc2ccccc21 [Semagacestat],Number (#) of genes having significantly changed expression,"RNA-seq, Phase III failure compounds, hepatocytes, significance: FPKM≥0.5, log 2(fold-change)≥1, q-value≥0.05 (so in the source)",9
same,significant modulation of expression of disease genes,"RNA-seq, hepatocytes",significantly (q≤0.05) modulate expression of CYP3A4
same,"B2M expression, RNA-seq result","gene B2M, hepatocytes",−0.06
same,"B9D2 expression, RNA-seq result","gene B9D2, hepatocytes",0.10
same,"BAAT expression, RNA-seq result","gene BAAT, hepatocytes",0.02
same,"BBOX1 expression, RNA-seq result","gene BBOX1, hepatocytes",−0.39
same,"BBS10 expression, RNA-seq result","gene BBS10, hepatocytes",−0.12
same,"BCHE expression, RNA-seq result","gene BCHE, hepatocytes",−0.07
same,"BCKDHB expression, RNA-seq result","gene BCKDHB, hepatocytes",0.07
same,"BCKDK expression, RNA-seq result","gene BCKDK, hepatocytes",0.00
same,"BCO1 expression, RNA-seq result","gene BCO1, hepatocytes",−0.09
same,"BCR expression, RNA-seq result","gene BCR, hepatocytes",−0.04
same,"BLNK expression, RNA-seq result","gene BLNK, hepatocytes",−0.03
same,"BLOC1S3 expression, RNA-seq result","gene BLOC1S3, hepatocytes",−0.02
same,"BMPR1A expression, RNA-seq result","gene BMPR1A, hepatocytes",0.01
same,"BRAF expression, RNA-seq result","gene BRAF, hepatocytes",0.30
same,"BSCL2 expression, RNA-seq result","gene BSCL2, hepatocytes",0.05
same,"BTD expression, RNA-seq result","gene BTD, hepatocytes",−0.02
same,"C4A expression, RNA-seq result","gene C4A, hepatocytes",0.16
same,"C9 expression, RNA-seq result","gene C9, hepatocytes",−0.11
same,"C10orf10 expression, RNA-seq result","gene C10orf10, hepatocytes",0.01
same,"C10orf11 expression, RNA-seq result","gene C10orf11, hepatocytes",−0.27
same,"C15orf41 expression, RNA-seq result","gene C15orf41, hepatocytes",−0.28
same,"CA2 expression, RNA-seq result","gene CA2, hepatocytes",0.59
same,"CA5A expression, RNA-seq result","gene CA5A, hepatocytes",−0.22
same,"CA12 expression, RNA-seq result","gene CA12, hepatocytes",0.80
same,"CAV1 expression, RNA-seq result","gene CAV1, hepatocytes",−0.21
same,"CCND1 expression, RNA-seq result","gene CCND1, hepatocytes",−0.14
same,"CD46 expression, RNA-seq result","gene CD46, hepatocytes",−0.05
same,"CD81 expression, RNA-seq result","gene CD81, hepatocytes",−0.02
same,"CD320 expression, RNA-seq result","gene CD320, hepatocytes",−0.04
same,"CDAN1 expression, RNA-seq result","gene CDAN1, hepatocytes",−0.07
same,"CDH1 expression, RNA-seq result","gene CDH1, hepatocytes",0.01
same,"CEP19 expression, RNA-seq result","gene CEP19, hepatocytes",−0.22
same,"CEP83 expression, RNA-seq result","gene CEP83, hepatocytes",−0.04
same,"CEP164 expression, RNA-seq result","gene CEP164, hepatocytes",−0.01
same,"CEP290 expression, RNA-seq result","gene CEP290, hepatocytes",0.06
same,"CFB expression, RNA-seq result","gene CFB, hepatocytes",−0.07
same,"CFHR2 expression, RNA-seq result","gene CFHR2, hepatocytes",0.01
same,"CHRM3 expression, RNA-seq result","gene CHRM3, hepatocytes",0.08
same,"CIDEC expression, RNA-seq result","gene CIDEC, hepatocytes",0.28
same,"CLDN1 expression, RNA-seq result","gene CLDN1, hepatocytes",−0.05
same,"COG1 expression, RNA-seq result","gene COG1, hepatocytes",0.17
"CN[C@@]1(C)[C@@H]2CC[C@@H](C2)C1(C)C.Cl [TC-5214 (R-Mecamylamine hydrochloride), R-Mecamylamine hydrochloride]",significant changes in gene expression,"RNA-seq of Table 36, FPKM≥0.5, log 2(fold-change)≥1, q-value≤0.05",not observed to cause any significant changes in gene expression
same,significant modulation of expression of disease genes,"RNA-seq, hepatocytes",significantly (q≤0.05) modulate expression of GCSH
same,log 2 fold change in expression of GCSH,"RNA-seq, hepatocytes",−1.31
CN[C@@]1(C)[C@@H]2CC[C@@H](C2)C1(C)C [TC-5214],Number (#) of genes having significantly changed expression,,30
